Experiments:
[1] = tested on: ischemic reperfusion model; details: Non-patent Reference 5; cited from earlier work
[2] = disclosed in Patent Reference 1 (WO 96/10023); cited from earlier work
[3] = tested on: cerebral hemorrhage model; assay: Neurological symptom score in collagenase-induced rat cerebral hemorrhage model; format: in vivo; details: 10 or 20 mg/kg/h; for neurological symptom score on the 2nd day after collagenase injection, versus physiological saline administration group / neurological symptom score on the 14th day after collagenase injection, versus physiological saline administration group: 24 h intravenous continuous injection started 30 min after collagenase, Steel test
Experimental: A cerebral hemorrhage model was prepared by the following procedure by adding a partial modification to the method of Rosenberg et al. (Stroke, 21, 801-807, 1990). Each of male Sprague-Dawley rats (240 to 330 g in body weight, Charles River Japan) was subjected to continuous anesthesia with 1% halothane under spontaneous respiration and fixed on a stereotaxic instrument. The skull was exposed by carrying out median skin incision of the head of the animal, and a small bone window was opened on the skull using a dental drill (C730, MINIMO) at a position of 0.2 mm in the front side (A: +0.2 mm) and 3.0 mm in the left side (L: +3.0 mm) based on dBregma in accordance with the Paxinos's brain pictorial book (Paxinos G and Watson C, The rat brain in the stereotaxic coordinates (1986) Academic Press, New Yolk). An administration needle of 30G was inserted to a depth of 6.0 mm (H: −6.0 mm) from the skull and then pulled out 0.3 mm to ensure an administration space (central part of the striatum). A solution of collagenase (10 units/ml, type IV, Lot 99H8641, Sigma) was injected at a flow rate of 0.2 μl/min for 7 minutes (1.4 μl) using a micro-syringe pump (Neuroscience Syringe Pump 100, Muromachi). The administration needle was slowly pulled out after completion of the injection, scalp suture was carried out, and then the animal was revived by warming up under an incandescent lamp. It has been reported that a cerebral hemorrhage locally limited to the striatum is generated 0.5 to 4 hours after injection of collagenase in this rat cerebral hemorrhage model (Stroke, 27, 2312-2320, 1996).
As the administration of medicament, zonampanel monohydrate (hereinafter, compound a) was used. After 30 minutes of the collagenase injection, intravenous injection of zonampanel was started via a canula indwelled in the common jugular vein. The compound a was dissolved in physiological saline at a concentration of 10 mg/5 ml or 20 mg/5 ml and then subjected to 24 hours of intravenous continuous injection under shading at a dose of 10 mg/5 ml/kg/h (compound a (10 mg/kg) administration group) or 20 mg/5 ml/kg/h (compound a (20 mg/kg) administration group). In the control group, physiological saline was subjected to 24 hours of intravenous continuous injection at a dose of 5 ml/kg/h (physiological saline administration group). The number of animals in respective groups was 6 animals in the compound a (10 mg/kg) administration group, 9 animals in the compound a (20 mg/kg) administration group, and 9 animals in the physiological saline administration group.
Staring after 30 minutes of the injection of collagenase into the striatum, the compound a was subjected to 24 hours of intravenous continuous injection at a dose of 10 mg/kg/h (compound a (10 mg/kg) administration group, 6 cases) or 20 mg/kg/h (compound a (20 mg/kg) administration group, 9 cases), and a neurological symptom of each animal was observed before the injection of collagenase and on the 2nd and 14th days after the collagenase injection. Physiological saline was administered to the control group (physiological saline administration group, 9 cases).
Scoring criteria of the neurological symptom are as follows. This was scored by 5 steps (O to 4) based on the behavior of each animal when the waist part of the animal was pushed toward the front side.
Score 1: Turning right is predominant but sometimes turns left.
Score 0: Normal, no left-right turning inclination. […]

[4] = tested on: cerebral infarction models; details: various cerebral infarction models; reported; cited from earlier work
AMPA receptor = details: disclosed in Patent Reference 1 (WO 96/10023); cited from earlier work
[5] = tested on: subarachnoid bleeding model animal; details: subarachnoid bleeding model animal injected with one's own blood; Non-patent Reference 6; cited from earlier work

Row | SMILES | time after drug administration from which the neurological symptoms improving action is observed [1] | water-solubility [2] | neurological symptom score on the 2nd day after collagenase injection, versus physiological saline administration group ([3]; listed as zonampanel, monohydrate) | neurological symptom score on the 2nd day after collagenase injection, versus physiological saline administration group ([3]; monohydrate) | neurological symptom score on the 14th day after collagenase injection, versus physiological saline administration group ([3]; p<0.05, listed as zonampanel, monohydrate) | neurological symptom score on the 14th day after collagenase injection, versus physiological saline administration group ([3]; p<0.05, monohydrate) | change of neurological symptom score as the days elapsed, in comparison with the control ([3]; 24 h intravenous continuous injection, days 0 to 14 (FIG. 1)) | effect on progress of infarction foci [4] | AMPA receptor binding activity (AMPA receptor) | effect on vascular permeability acceleration [5]
1 | O.O=C(O)Cn1c(=O)c(=O)[nH]c2cc([N+](=O)[O-])c(-n3ccnc3)cc21 [compound a, [7-(1H-imidazol-1-yl)-6-nitro-2,3-dioxo-3,4-dihydroquinoxalin-1(2H)-yl]acetic acid monohydrate] | ≥ 24 hours | high | does not show significant effect | almost the same | significant improving effect | significantly light | improving tendency | inhibit progress of infarction foci | potent and selective | –
2 | CC1=NN=C(c2ccc(N)cc2)c2cc3c(cc2C1)OCO3 [GYK152466] | – | – | – | – | – | – | – | – | – | inhibits vascular permeability acceleration

From patent US20050234063A1, “Therapeutic agent for brain hemorrhage” (priority 2002, published 2005)
